The numbers were not newly measured in patent US20150079136A1, “CONTROLLED RELEASE PHARMACEUTICAL FORMULATIONS OF DIRECT THROMBIN INHIBITORS” (RUBICON RESEARCH PRIVATE LIMITED, priority 2012, published 2015), which cites them from elsewhere.

Structures can show the parent of a compound that is named as a salt. Where two headings read alike, the source gives them in different places.

Experiment in series [1]: not given
This is another data set of the same source.

Experiment in series [2]: not given
This is another data set of the same source.

The next series has as its target P-glycoprotein (Homo sapiens, UniProt P08183).

Chain of P-glycoprotein (P08183 whole entry): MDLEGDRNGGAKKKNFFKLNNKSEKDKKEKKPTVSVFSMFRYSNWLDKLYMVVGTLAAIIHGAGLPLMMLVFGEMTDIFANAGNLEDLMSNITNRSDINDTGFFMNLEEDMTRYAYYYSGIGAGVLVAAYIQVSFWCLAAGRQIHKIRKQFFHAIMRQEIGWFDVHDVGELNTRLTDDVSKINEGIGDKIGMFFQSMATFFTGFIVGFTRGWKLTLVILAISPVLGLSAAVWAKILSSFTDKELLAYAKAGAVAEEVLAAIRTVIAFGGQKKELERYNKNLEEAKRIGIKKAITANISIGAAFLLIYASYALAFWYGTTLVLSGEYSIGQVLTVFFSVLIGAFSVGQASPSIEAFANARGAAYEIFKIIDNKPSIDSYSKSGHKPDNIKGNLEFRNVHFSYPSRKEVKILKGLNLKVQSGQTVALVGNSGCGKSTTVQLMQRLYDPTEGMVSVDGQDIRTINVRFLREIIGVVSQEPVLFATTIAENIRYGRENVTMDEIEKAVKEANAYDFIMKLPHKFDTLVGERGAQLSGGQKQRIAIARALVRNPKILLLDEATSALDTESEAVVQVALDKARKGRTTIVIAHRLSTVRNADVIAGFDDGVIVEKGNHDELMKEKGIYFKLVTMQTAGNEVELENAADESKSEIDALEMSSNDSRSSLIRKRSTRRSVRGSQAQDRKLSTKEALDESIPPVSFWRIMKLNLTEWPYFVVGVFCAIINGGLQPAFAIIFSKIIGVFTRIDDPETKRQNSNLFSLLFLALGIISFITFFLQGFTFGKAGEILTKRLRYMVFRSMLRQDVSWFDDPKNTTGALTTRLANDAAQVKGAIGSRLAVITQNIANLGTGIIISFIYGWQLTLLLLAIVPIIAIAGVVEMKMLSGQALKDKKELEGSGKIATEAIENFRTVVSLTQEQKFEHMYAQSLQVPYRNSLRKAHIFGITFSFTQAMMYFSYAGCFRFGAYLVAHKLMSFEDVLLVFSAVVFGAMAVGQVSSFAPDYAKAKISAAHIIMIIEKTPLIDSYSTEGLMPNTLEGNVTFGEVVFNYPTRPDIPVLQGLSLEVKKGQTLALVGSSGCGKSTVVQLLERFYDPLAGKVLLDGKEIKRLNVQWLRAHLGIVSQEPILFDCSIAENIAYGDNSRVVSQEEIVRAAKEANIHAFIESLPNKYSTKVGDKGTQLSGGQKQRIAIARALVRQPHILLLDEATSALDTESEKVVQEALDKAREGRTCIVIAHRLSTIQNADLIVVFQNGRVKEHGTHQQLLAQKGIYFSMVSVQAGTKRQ

`CCCCCCOC(=O)NC(=N)c1ccc(NCc2nc3cc(C(=O)N(CCC(=O)OCC)c4ccccn4)ccc3n2C)cc1` [DEM, dabigatran etexilate mesylate]: the “solubility in acidic media” value (acidic media) is on record as “rather high solubility”. Also, the “solubility in neutral and basic media” value (neutral and basic media) is recorded as “very poor solubility”. Also, the BCS class entry (poor aqueous solubility but good membrane permeability) was “Class II”. For the same compound, the “sensitivity to light irradiation” value in series [1] (light irradiation) is “not sensitive”. Besides, in series [1] (powder), the hygroscopicity result is listed as “non-hygroscopic”. Also, in series [1] (presence of moisture), the “degradation in the presence of moisture” value is given as “predominantly undergoes degradation by hydrolytic pathways”. The “stability in the solid state” value in series [1] (solid state) is listed as “stable”. Besides, the elimination half life result is “about 8 hours” in series [2] (multiple dosing) and 12 to 17 h in series [2] (single dosing).
In the case of `CCCCCCOC(=O)NC(=N)c1ccc(NCc2nc3cc(C(=O)N(CCC(=O)OCC)c4ccccn4)ccc3n2C)cc1` [dabigatran etexilate, 1-methyl-2-[N-[4-(N-n-hexyloxycarbonylamidino)phenyl]aminomethyl]benzimidazol-5-ylcarboxylic acid-N-(2-pyridyl)-N-(2 ethoxycarbonylethyl)amides], on P-glycoprotein, the “substrate of efflux transporter P-glycoprotein” value was “substrate”. Besides, the “effect of high-fat meal on the bioavailability of dabigatran” value in series [2] (coadministration with a high-fat meal) is on record as “no effect”. The “absolute bioavailability of dabigatran” value in series [2] (following oral administration of dabigatran etexilate) is 3-7%. For the same compound, in series [2] (marketed formulation, pellets taken without the capsule shell vs intact capsule), the “increase in oral bioavailability” value is recorded as 75%.
